Test results published in paper PMC4467156, “A new chemical inhibitor of angiogenesis and tumorigenesis that targets the VEGF signaling pathway upstream of Ras” (Oncotarget, 2015).
pIC50: −log10 of the molar value. Structures can show the parent of a compound that is named as a salt.

Columns and labels:
HMEC-GFP cells = assay: Scratch wound closure assay, HMEC-GFP; assay type: cell-based, human; settings: for pIC50: wound closure after 24 h, 10% FCS, tested 3.125 μM to 100 μM; for activity on HMEC-GFP wound closure: structure-activity relationship analysis
Text: In order to adapt the endothelial scratch wounding assay to the constraints of high throughput screening, we decided to use an endothelial cell line rather than primary cultures for the sake of reproducibility. Since angiogenesis is triggered by capillary endothelial cells, we selected the HMEC-1 cell line which consists of human dermal microvascular endothelial cells stably expressing SV40 […] antigen. We infected this cell line with GFP-encoding retroviral particles and selected one clone (thereafter named HMEC-GFP) that presented a high level of fluorescence and a strong proliferation rate (doubling time in the presence of serum: 22 h). We controlled that GFP expression was stable over at least 50 passages and that these cells still expressed endothelial markers such as VE-cadherin and CD31. In a standard assay, HMEC-GFP cells were grown until confluence in 96-well plates in the presence of serum, scratched with the multi-tip dispenser of the HTS automat, gently rinsed twice to eliminate detached cells and cell debris that could liberate inflammatory and potentially angiogenic cytokines, and incubated for 24 h in the presence of serum and the compounds to be tested. Each well was photographed at time 0 h (after wounding) and 24 h under a motorized epifluorescence microscope and the digitized images were analyzed using Image J to determine the percentage of wound closure (Figure 1A, 1B). Under our standard conditions, the closure rate was 72 ± 4% in the positive controls and 27 ± 4.% in the negative controls.
(§1) Confluent cell monolayers were wounded with a plastic pipet tip, washed gently with phosphate buffer saline (PBS) and treated with complete media containing molecules, as indicated. Cells were placed at 37°C into the incubator and photographed at indicated times. Quantitation of closure of the monolayer was performed using the NIH Image J program (http://rsbweb.nih.gov/ij/). Results are expressed as percentage of wound closure at t = 24 h as compared to the initial wound at t = 0 h.

3T3-GFP cells = assay: Scratch wound closure assay, 3T3-GFP; assay type: cell-based; settings: wound closure after 24 h, 10% FCS, tested 3.125 μM to 100 μM
Text: Using this assay, we screened the academic library of the University of Grenoble, which is composed of 1360 original molecules. Setting the threshold of significant responses at 75% of the maximal inhibition, we identified 80 inhibitory molecules. At this stage, we reasoned that molecules that would affect the cytoskeleton dynamics or the adhesion properties of any cell type would be positive in this assay but would not represent good candidates for further development. We thus decided to perform a secondary counterscreen of the first 80 selected compounds on GFP-expressing 3T3 fibroblasts (3T3-GFP) using the same scratch assay. We then focused our interest on the 5 molecules that inhibited more strongly HMEC-GFP than 3T3-GFP wound healing. […] We synthesized a series of 30 analogs and tested them at various concentrations both on HMEC-GFP and 3T3-GFP cells. […] Dansyl and naphthalimide aromatic groups, found in COB223 and COB227 respectively, appeared very efficient. The presence of the diaminomethyl group on dansyl is critical for the activity of COB223 as shown by the lower efficiency of COB235 (IC50 is 8 times higher than that of COB223). COB223 and COB227 contain a tert-butyloxycarbonyl function (BOC group) as a second hydrophobic group. Replacement of BOC by an amino group decreased the efficiency and the specificity (compare 05-102-L-B09 vs 05-06-L-D03, or COB227 vs COB228).
as §1

LLC/2 tumor = assay: Mouse LLC/2 tumor model; assay type: in vivo; settings: mouse, in vivo
Method: We chose this model because of its rapid growth in syngenic mice and its strong dependence on angiogenesis. LLC/2 cells (10^6 in 50 μL medium) were subcutaneously injected into the right flank of […] mice. Seven days after tumor inoculation, mice were given an intraperitoneal (i.p.) injection of either solvent (1.7% DMSO) or COB223 every other day. Tumor size was measured with calipers, and the volume was calculated according to the formula (L*w^2)/2 where L and […] stand for length and width respectively. All mice were killed 21 days after tumor grafting.
Tumors collected after animal sacrifice were split into two parts and fixed either in 4% paraformaldehyde (v/v) or in formalin fixative for 24 h at 4°C and embedded in paraffin and then cut into 7 μm sections. Sections were stained using specific antibodies and the avidin–biotin immunoperoxidase detection method. Endogenous peroxidase activity was quenched by pretreatment with 3% (v/v) hydrogen peroxide in methanol for 20 min. For endothelial immunohistochemistry detection, CD31 antibody (MEC13.3, BD Pharmingen) was incubated for 2 h at room temperature. The tissue sections were subsequently washed three times with PBS and incubated with biotinylated rabbit anti-rat IgG (1:250 dilution in blocking solution; Sigma-Aldrich, Saint-Quentin Fallavier, France) for 1 h at room temperature. After three PBS washes, the slides were incubated with an avidin: biotin complex (Vectastain ABC kit; Vector Laboratories, Burlingame, CA) for 45 minutes. After a final PBS wash, the immunoreactive proteins were visualized after the addition of 3,3′-diaminobenzidine (Dako, Trappes, France) for 2 min and then counterstained with hematoxylin. Control sections were treated without primary antibody.

Compound | pIC50 (HMEC-GFP cells; Homo sapiens) | pIC50 (HMEC-GFP cells) | pIC50 (3T3-GFP cells) | activity on HMEC-GFP wound closure (HMEC-GFP cells) | effect on in vivo LLC/2 tumor growth (LLC/2 tumor)
CC(C)(C)OC(=O)NCCCN1C(=O)c2cccc3cc([N+](=O)[O-])cc(c23)C1=O [COB282, N-(3-(tert-Butoxycarbonylamino)propyl)-3-nitro-1,8-naphthalimide] | < 4.00 |  |  |  | 
CC(C)(C)OC(=O)NCCCN1C(=O)c2cccc3cccc(c23)C1=O [COB283, N-(3-(tert-Butoxycarbonylamino)propyl)-1,8-naphthalimide] | < 4.00 |  |  |  | 
1,4-bis[3-(5-(Dimethylamino)naphthalene-1-sulfonamido)propylamino]piperazine [COB222] |  | < 4.30 | < 4.30 |  | 
O=C1c2cccc3cc([N+](=O)[O-])cc(c23)C(=O)N1CCCNCCCN1C(=O)c2cccc3cc([N+](=O)[O-])cc(c23)C1=O [COB278, Bis-[(3-nitro-1,8-naphthalimido)propyl]amine] | 4.90 |  | 4.60 |  | 
NCCCN1C(=O)c2cccc3cccc(c23)C1=O [COB226, N-(3-Aminopropyl)-1,8-naphthalimide hydrochloride] | < 4.30 |  | < 4.30 |  | 
CN(C)c1cccc2c(S(=O)(=O)N3CCN(CCOCCO)CC3)cccc12 [COB224, 2-(2-{4-[5-(Dimethylamino)naphthalene-1-sulfonyl]piperazin-1-yl}ethoxy)ethan-1-ol] | < 4.30 |  | < 4.30 |  | 
CC(C)(C)OC(=O)NCCCNCCCN1C(=O)c2cccc3cc([N+](=O)[O-])cc(c23)C1=O [COB281, N-[3-((3-tert-Butoxycarbonylaminopropyl)amino)propyl]-3-nitro-1,8-naphthalimide] | 4.60 |  | < 4.30 |  | 
CN(C)c1cccc2c(S(=O)(=O)NCCOCCO)cccc12 [COB225, 2-{2-[5-(Dimethylamino)naphthalene-1-sulfonamido]ethoxy}ethan-1-ol] | < 4.30 |  | < 4.30 |  | 
CC(C)(C)OC(=O)NCCCN1CCN(CCCN2C(=O)c3cccc4cc([N+](=O)[O-])cc(c34)C2=O)CC1 [COB280, N-{3-[4-(3-tert-Butoxycarbonylaminopropyl)piperazin-1-yl]propyl}-3-nitro-1,8-naphthalimide] | 4.60 |  | < 4.00 |  | 
CC(C)(C)OC(=O)NCCCN1CCN(CCCN2C(=O)c3cccc4cccc(c34)C2=O)CC1 [COB227, N-{3-[4-(3-tert-Butoxycarbonylaminopropyl)piperazin-1-yl]propyl}-1,8-naphthalimide] | 4.74 |  | 3.60 |  | no inhibition
NCCCN [1,3-diaminopropane, reference compound] |  | < 4.00 |  | inactive | 
CN(C)c1ccc2c3c(cccc13)C(=O)N(CCCNC(=O)OC(C)(C)C)C2=O [COB276, N-(3-(tert-Butoxycarbonylamino)propyl)-4-dimethylamino-1,8-naphthalimide] | < 4.00 |  |  |  | 
CC(C)(C)OC(=O)NCCCN1CCN(CCCNC(=O)OCc2ccc([N+](=O)[O-])cc2)CC1 [COB238, 4-Nitrobenzyl N-[3-(4-{3-[(tert-butoxycarbonyl)amino]propyl}piperazin-1-yl)propyl] carbamate] | 4.70 |  | < 4.30 |  | 
CN(C)c1cccc2c(S(=O)(=O)NCCCO)cccc12 [COB220, 5-(Dimethylamino)-N-[3-hydroxypropyl]naphthalene-1-sulfonamide] | 4.40 |  | < 4.30 |  | 
N-(5-(Dimethylamino)naphthalene-1-sulfonamido)-N'-(tert-butoxycarbonyl)-1,3-diamino-propane [Compound 05-102-B09] |  | 4.74 | 3.82 |  | 
CN(C)c1ccc2c3c(cccc13)C(=O)N(CCCNCCCNC(=O)OC(C)(C)C)C2=O [COB275, N-[3-((3-tert-Butoxycarbonylaminopropyl)amino)propyl]-4-dimethylamino-1,8-naphthalimide] | 4.90 |  | 4.30 |  | 
NCCCNCCCCNCCCN [spermine, reference compound] |  |  |  | inactive | 
CN(C)c1ccc2c3c(cccc13)C(=O)N(CCCN1CCN(CCCNC(=O)OC(C)(C)C)CC1)C2=O [COB274, N-{3-[4-(3-tert-Butoxycarbonylaminopropyl)piperazin-1-yl]propyl}-4-dimethylamino-1,8-naphthalimide] | < 4.00 |  |  |  | 
CN(C)CCCNS(=O)(=O)c1cccc2c(N(C)C)cccc12 [COB221, 5-(Dimethylamino)-N-[3-(dimethylamino)propyl]naphthalene-1-sulfonamide] | 4.70 |  | 3.82 |  | 

Further lines, with some results ahead:

pIC50 (HMEC-GFP cells; Homo sapiens) | pIC50 (HMEC-GFP cells) | Compound | pIC50 (3T3-GFP cells) | activity on HMEC-GFP wound closure (HMEC-GFP cells) | effect on in vivo LLC/2 tumor growth (LLC/2 tumor)
< 4.30 |  | CC(C)(C)OC(=O)NCCCN1CCN(CCCNC(=O)c2ccccc2)CC1 [COB237, tert-Butyl 3-(4-(3-phenylamidopropyl)piperazin-1-yl)propylcarbamate] | < 4.30 |  | 
< 4.00 |  | NCCCCN [putrescine, 1,4-diaminobutane, reference compound] |  | inactive | 
 | 4.60 | N-(5-(Dimethylamino)naphthalene-1-sulfonamido)-1,3-diamino-propane [Compound 05-06-L-D03] | 3.70 |  | 
 | < 4.00 | NCCN [Ethylene diamine, 1,2-ethylenediamine, reference compound] |  | inactive | 
< 4.00 |  | NCCCN1C(=O)c2cccc3cc([N+](=O)[O-])cc(c23)C1=O [COB277, N-(3-Aminopropyl)-3-nitro-1,8-naphtalimide hydrochloride] |  |  | 
4.40 |  | CC(C)(C)OC(=O)NCCCN1CCN(CCCNS(=O)(=O)c2cccc3ccccc23)CC1 [COB235, tert-Butyl 3-(4-(3-(naphthalene-1-sulfonamido)propyl)piperazin-1-yl) propylcarbamate] | < 4.30 |  | 
5.30 |  | CN(C)c1cccc2c(S(=O)(=O)NCCOCCOCCNC(=O)OC(C)(C)C)cccc12 [COB296, tert-Butyl N-(2-[2-{2-(5-(dimethylamino)naphthalene-1-sulfonamido)ethoxy}ethoxy]ethyl) carbamate] |  |  | 
< 4.30 |  | Cc1ccc(S(=O)(=O)NCCCN2CCN(CCCNC(=O)OC(C)(C)C)CC2)cc1 [COB236, tert-Butyl 3-(4-(3-(4-methylphenylsulfonamido)propyl)piperazin-1-yl) propylcarbamate] | < 4.30 |  | 
4.60 |  | NCCCN1CCN(CCCN2C(=O)c3cccc4cccc(c34)C2=O)CC1 [COB228, N-{3-[4-(3-Aminopropyl)piperazin-1-yl]propyl}-1,8-naphthalimide hydrochloride] | 4.40 |  | 
4.46 |  | NCCCCCCNS(=O)(=O)c1cccc2c(Cl)cccc12 [Compound W7, reference compound] | 4.46 |  | 
< 4.30 |  | CN(C)c1cccc2c(S(=O)(=O)NCCCCCN)cccc12 [dansylcadaverine, monodansylcadaverine, reference compound] | < 4.30 | inactive | 
